Data taken from EP3708171A1, “TREATMENT OF VITAMIN D DEFICIENCY WITH 25(OH) VITAMIN D IN CRITICALLY ILL PATIENTS” (Bouillon, Roger, priority 2019, dated 2020).

Legend:
[1] = Further trial of IV 25OHD with higher replacement dose in critically ill patients (Example 2); type: in vivo; conditions: IV loading dose, then 25 µg 25OHD per day for 10 days
Description: The study design and materials are similar to the one described in Example 1, the difference being that the patients are administered higher bolus and daily replacement doses of 25OHD for at least two days after the bolus administration and preferably during the hospital stay of such patients .
The study is performed in accordance with the 1964 Declaration of Helsinki and its later amendments. Patients with an anticipated stay in the intensive care unit (ICU) of more than 10 days are considered eligible for inclusion in the study. […]
The effect of IV 25OHD supplementation on vitamin D status (25OHD) is studied. […] All patients are followed up and monitored for possible adverse events beyond the intervention period of 10 days until discharge or death. […]
Every day at 06.00 a.m., from ICU admission until ICU discharge or death, undiluted blood samples are taken through an arterial line that is present for clinical purposes. […] Concentrations of 25OHD are measured in serum.
StatView 5.0.1 (SAS Institute Inc., Cary, NC) and JMP13 (SAS) is used for the statistical analyses. […] Variables with a normal distribution are analyzed with Student's t-test, variables with a non-normal distribution with Mann-Whitney U, and proportions with the chi-square test. […]

[2] = normal subjects; cited from earlier work
[3] = cited from earlier work
[4] = Randomized, placebo-controlled pilot study of IV 25OHD supplementation in critically ill (ICU) patients; serum vitamin D metabolites and DBP (Example 1); type: in vivo
Description: The study was performed in accordance with the 1964 Declaration of Helsinki and its later amendments. The protocol and consent forms were approved by the institutional review board of the University Hospitals Leuven (ML2462). The study was registered at www.controlled-trials.com (ISRCTN24385496). Patients with an anticipated stay in the intensive care unit (ICU) of more than 10 days were eligible for inclusion in the study. Patients younger than 18 years, those suffering from chronic bone or kidney disease, and those who were treated with glucocorticoids before ICU admission were excluded. Patients were compared with healthy controls matched for age, gender and body mass index, of whom blood was sampled during summer time.
Upon ICU admission, patients were randomly allocated to either a daily IV injection of placebo (NaCl 0.9%) or to an IV loading dose of 200 µg 25OHD, followed by an IV replacement dose of 15 µg 25OHD per day, from ICU admission onward and continued for 10 days. Patients from both groups also received the usual vitamin D supplement, which consisted of a daily intravenous cholecalciferol supplement of +/-200 IU (5 µg, as part of 10 ml of Cernevit® (Clinitec-Baxter, Brussels, Belgium). 25OHD was obtained from Solvay Pharmaceuticals (Brussels, Belgium) and dissolved in ethanol by the hospital pharmacy under laminar flow conditions in glass vials, containing 200 µg/ml per vial for the loading dose and 15 µg/ml per vial for the replacement dose. A purity control was performed on the prepared samples using HPLC. Similarly, placebo vials were also prepared by the hospital pharmacy (1 ml NaCl 0.9% per vial). All vials were blinded by the hospital pharmacy.
The effect of IV 25OHD supplementation on vitamin D status (25OHD, 1,25(OH)2D, 24,25(OH)2D) was studied. Clinical outcome parameters (organ dysfunction (sequential organ failure assessment (SOFA) score, days on mechanical ventilation, need for renal replacement therapy), prolonged (>3 days) antibiotic therapy, ICU length of stay and mortality) were registered as safety endpoints. All patients were followed up and monitored for possible adverse events beyond the intervention period of 10 days until discharge or death. Analysts and investigators were blinded for treatment allocation.
Every day at 06.00 a.m., from ICU admission until ICU discharge or death, undiluted blood samples were taken through an arterial line that had been placed for clinical purposes. Serum and plasma samples were frozen and subsequently stored at -20°C until assay. Concentrations of 25OHD, 1,25(OH)2D, and 24,25(OH)2D were measured in serum.
25OHD was measured by competitive binding assay; 1,25(OH)2D by radioimmunoassay (RIA), and DBP by radial immunodiffusion, as previously reported by Bouillon et al (J Clin Invest 1981 67 589-596). A subset of the original 25OHD measurements were subsequently validated by re-analyses using LC-MS/MS, currently considered the gold standard. To this end, 58 samples from patients (treated with 25OHD or placebo) and controls were selected at random covering the full range of 25OHD serum concentrations (3.7-70.7 ng/ml). Briefly, serum proteins were precipitated using zinc sulphate solution, spiked with d6-25OHD3 as internal standard. After mixing and centrifugation, the supernatant was transferred to the liquid chromatography autosampler. We used a ScieX 5500 QTRAP mass spectrometer connected with a Shimadzu chromatographic system. The method consisted of an online clean-up step using a Strata C8 extraction cartridge. After loading and cleaning, the analytes were eluted by back-flushing. A Kinetex F5 column was used as analytical column. Atmospheric-pressure chemical ionization (APCI) positive mode was used. Mass transitions of 383>211, 295>211 and 389>211 were used for 25OHD3, 25OHD2 and the internal standard, respectively. Within-run and between-run CVs at clinically relevant concentrations varied between 6.3-7.4% and 6.9-8.8% respectively. […]

[5] = daily administration of 15 µg 25(OH)D (Ingels et al. 2010)

Row | SMILES | safety endpoints (clinical outcome parameters) [1] | increase of serum 25OHD per daily dose of 1 ug of 25OHD [2] | level of 1,25(OH)2D3 [3, 5] | serum levels of 25OHD [3, 5] | 25OHD serum concentration as compared with placebo ([4]; 10-day period, IV replacement dose 15 µg 25OHD per day) | concentrations of 1,25(OH)2D ([4]; IV 200 µg loading dose, then 15 µg/day for 10 days) | increase in serum 25OHD after bolus ([4]; IV loading dose of 200 µg 25OHD) | increase of 25OHD levels ([4]; daily supplement of 15 µg of 25OHD) | 25OHD serum concentrations ([4]; following the intravenous loading dose of 200 µg 25OHD, 20 ng/ml target) | increase of 25OHD levels in the subgroup receiving the active treatment ([4]; from 9.2 ng/ml baseline) | catabolism of 25OHD in ICU patients versus normal subjects of the same age ([4]; human, in vivo) | Vd ([4]; human, in vivo, iv) | outcome of critically ill patients ([3]; oral, high dose, except subgroup with baseline severe vitamin D deficiency (lower hospital mortality))
1 | C=C1CC[C@H](O)C/C1=C/C=C1\CCC[C@]2(C)[C@@H]([C@H](C)CCCC(C)(C)O)CC[C@@H]12 [25OHD, 25-hydroxyvitamin D] | positive effects | 1.2 ng/mL | only a transient increase | increased the serum levels of 25OHD | remained elevated throughout the 10-day period | only transiently increased | 11 ng/mL | about 8 ng/ml | instantly rose but did not reach the 20 ng/ml target | 6.8 ng/mL | at least 3 fold | ~18 L | 
2 | C=C1CC[C@H](O)C/C1=C/C=C1\CCC[C@]2(C)[C@@H]([C@H](C)CCCC(C)C)CC[C@@H]12 [vitamin D3] |  |  |  |  |  |  |  |  |  |  |  |  | did not affect outcome
